We go through 15 compounds from the Kinase Knowledgebase extract (Sharma et al. 2016).

The target in the assay is PIK3CD (Human) (UniProt O00329). The assay is described as follows: Enzyme Assay.
Chain of PIK3CD (Human) (O00329 whole entry, looked up): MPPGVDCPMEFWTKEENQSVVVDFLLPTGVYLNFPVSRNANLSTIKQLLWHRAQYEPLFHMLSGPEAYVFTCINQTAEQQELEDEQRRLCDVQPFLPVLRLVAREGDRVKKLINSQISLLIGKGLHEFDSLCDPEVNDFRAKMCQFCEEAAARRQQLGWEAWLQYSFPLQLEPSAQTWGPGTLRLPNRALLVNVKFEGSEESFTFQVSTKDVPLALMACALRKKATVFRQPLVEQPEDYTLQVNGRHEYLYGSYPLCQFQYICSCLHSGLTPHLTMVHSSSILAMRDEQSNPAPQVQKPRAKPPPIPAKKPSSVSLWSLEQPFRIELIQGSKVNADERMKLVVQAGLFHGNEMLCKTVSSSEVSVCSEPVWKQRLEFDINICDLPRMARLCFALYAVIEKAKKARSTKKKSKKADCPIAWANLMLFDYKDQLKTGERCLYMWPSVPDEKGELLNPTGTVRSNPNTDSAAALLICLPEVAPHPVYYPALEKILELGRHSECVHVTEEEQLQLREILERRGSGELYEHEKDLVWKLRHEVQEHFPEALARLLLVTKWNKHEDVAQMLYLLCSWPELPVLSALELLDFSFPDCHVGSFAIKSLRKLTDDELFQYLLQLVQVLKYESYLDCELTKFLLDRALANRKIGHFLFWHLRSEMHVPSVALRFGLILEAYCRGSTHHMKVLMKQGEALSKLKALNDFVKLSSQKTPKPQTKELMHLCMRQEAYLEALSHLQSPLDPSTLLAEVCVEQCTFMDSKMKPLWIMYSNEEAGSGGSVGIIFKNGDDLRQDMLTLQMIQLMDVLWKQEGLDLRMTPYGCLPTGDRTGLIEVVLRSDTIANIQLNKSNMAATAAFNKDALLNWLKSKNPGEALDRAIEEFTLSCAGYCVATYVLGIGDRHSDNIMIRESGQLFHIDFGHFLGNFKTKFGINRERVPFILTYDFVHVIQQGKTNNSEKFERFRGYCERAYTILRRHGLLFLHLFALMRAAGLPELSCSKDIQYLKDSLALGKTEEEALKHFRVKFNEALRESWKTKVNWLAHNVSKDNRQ
The term Ki denotes the equilibrium dissociation constant of an inhibitor or competing ligand from its target. Lower therefore signals higher affinity. Turning to `C[C@@H](Nc1ncnc(N)c1C#N)c1nc2cccc(Br)c2n1-c1cncc(F)c1.C[C@H](Nc1ncnc(N)c1C#N)c1nc2cccc(Br)c2n1-c1cncc(F)c1`, the inhibitory constant (Ki) came to 0.0697 µM.

The compound `C[C@H](Nc1ncnc(N)c1C#N)c1nc2ccc(F)cc2n1-c1ccc(-c2cccnc2)nc1` came in with an inhibition constant (Ki) of 0.248 µM.

Compound `C[C@@H](Nc1ncnc(N)c1C#N)c1nc2ccc(F)cc2n1-c1cccc(F)n1.C[C@H](Nc1ncnc(N)c1C#N)c1nc2ccc(F)cc2n1-c1cccc(F)n1` registered a Ki of 0.0247 µM.

For the compound `C[C@@H](Nc1ncnc(N)c1C#N)c1nc2ccc(F)cc2n1-c1ccc(-c2cccnc2)nc1`, the Ki is 1.19 µM.

Take `C[C@@H](Nc1ncnc(N)c1C#N)c1nc2ccc(F)cc2n1-c1cncc(NS(C)(=O)=O)c1.C[C@H](Nc1ncnc(N)c1C#N)c1nc2ccc(F)cc2n1-c1cncc(NS(C)(=O)=O)c1`: the Ki is 0.0144 µM.

The compound `CNC(=O)c1cccc(-n2c([C@@H](C)Nc3ncnc(N)c3C#N)nc3ccc(F)cc32)c1.CNC(=O)c1cccc(-n2c([C@H](C)Nc3ncnc(N)c3C#N)nc3ccc(F)cc32)c1` came in with an inhibition constant (Ki) of 0.0306 µM.

`C[C@@H](Nc1ncnc(N)c1C#N)c1nc2cccc(S(C)(=O)=O)c2n1C1CC1.C[C@H](Nc1ncnc(N)c1C#N)c1nc2cccc(S(C)(=O)=O)c2n1C1CC1` had a Ki of 0.00376 µM.

For the compound `C[C@@H](Nc1ncnc(N)c1C#N)c1nc2ccc(F)cc2n1-c1cncc(Br)c1.C[C@H](Nc1ncnc(N)c1C#N)c1nc2ccc(F)cc2n1-c1cncc(Br)c1`, the Ki is 0.0461 µM.

For `C[C@@H](Nc1ncnc(N)c1C#N)c1nc2ccc(F)cc2n1-c1cccc(C#N)c1.C[C@H](Nc1ncnc(N)c1C#N)c1nc2ccc(F)cc2n1-c1cccc(C#N)c1`, the Ki was 0.0288 µM.

In turn, `C[C@@H](Nc1ncnc(N)c1C#N)c1nc2c(F)cc(F)cc2n1-c1cccnc1.C[C@H](Nc1ncnc(N)c1C#N)c1nc2c(F)cc(F)cc2n1-c1cccnc1` showed a Ki of 0.0222 µM.

Compound `C[C@@H](Nc1ncnc(N)c1C#N)c1nc2cccc(C#N)c2n1-c1cncc(F)c1.C[C@H](Nc1ncnc(N)c1C#N)c1nc2cccc(C#N)c2n1-c1cncc(F)c1` yielded an inhibition constant (Ki) of 0.177 µM.

In the case of `CNC(=O)c1cccc2nc([C@@H](C)Nc3ncnc(N)c3C#N)n(-c3cncc(F)c3)c12.CNC(=O)c1cccc2nc([C@H](C)Nc3ncnc(N)c3C#N)n(-c3cncc(F)c3)c12`, the Ki turned out to be 0.0901 µM.

As for `C[C@@H](Nc1ncnc(N)c1C#N)c1nc2cc(F)ccc2n1-c1cncc(F)c1.C[C@H](Nc1ncnc(N)c1C#N)c1nc2cc(F)ccc2n1-c1cncc(F)c1`, the Ki came out at 0.148 µM.

`C[C@@H](Nc1ncnc(N)c1C#N)c1nc2c(F)cccc2n1-c1cncc(F)c1.C[C@H](Nc1ncnc(N)c1C#N)c1nc2c(F)cccc2n1-c1cncc(F)c1` gave a Ki of 0.0861 µM.

In the case of `C[C@@H](Nc1ncnc(N)c1C#N)c1nc2ncccc2n1-c1ccccn1.C[C@H](Nc1ncnc(N)c1C#N)c1nc2ncccc2n1-c1ccccn1`, the Ki came to 2.9 µM.
